Reference: patent US20260325667A1, “TISSUE FACTOR ANTIBODY-DRUG CONJUGATES AND USES THEREOF” (priority 2022, published 2026)
Read-outs that look alike come from different tables or passages of the source.

Columns and labels:
A431 [1] = experiment: In vitro cytotoxicity (CellTiter Glo, 5 days), A431; format: cell-based; settings: controls (FITC-ADC 8 DAR 6.36; FITC-ADC 4 DAR 3.39; free belotecan)
Protocol: (§1) Various cancer cell lines were plated in 96-well plates (Costar 3610) at a density of 1.5×10^3 cells/well in 100 μL of growth media. The next day, cells were treated with […] of test compounds serially-diluted in media. After incubation at 37° C. with […] for 5 days, viability was measured using the Promega CellTiter Glo® reagent according to the manufacturer's recommendations. GI50 curves were calculated in GraphPad Prism normalized to the payload concentration.

HPAF-II = experiment: In vitro cytotoxicity (CellTiter Glo, 5 days), HPAF-II; format: cell-based; settings: controls (FITC-ADC 8 DAR 6.36; FITC-ADC 4 DAR 3.39; free belotecan)
Protocol: as §1

[2] = NHP payload (belotecan) concentration in plasma; format: in vivo, cynomolgus monkeys; settings: cynomolgus, ADC dosed q3wX2
Protocol: To assess toxicity of the TF-ADCs, female cynomolgus (“cyno”) monkeys (n=2 per group) were treated via IV bolus with test articles at the doses indicated in the table below on days 1 and 22 (q3wX2). All monkeys that survived until day 43 of the study underwent euthanasia for necropsy and anatomic pathology evaluation. Clinical observations, ECG, eye exams, clinical and anatomic pathology, and TK analysis were performed.
Further, payload concentrations in plasma of cyno treated with various dosages of TF-ADC 6-4 and TF-ADC 6-8 were evaluated and the data is shown in FIGS. 14A and 14B. […] The plasma level of belotecan was low relative to ADCs and total antibody with a molar ratio (AUC0-21d) ranging from 169 to 519 for TF-ADC 6-4 and 130 to 156 for TF-ADC 6-8. TF-ADC 6-4 had approximately 2-fold higher belotecan compared to TF-ADC 6-8 for the same dose level. […] Belotecan's apparent half-life ranged between 3 to 6 days (Formation rate-limited).

A431 [3] = experiment: ATP release from treated tumor cells (RealTimeGlo); format: cell-based; settings: TF+ tumor cell line, e.g.
Protocol: (§2) Tumor cell treatment: Tumor cells (such as A431 or SKOV-3) were trypsinized by washing with PBS, then 3 mL of TrypLE express was added to each T75 flask and incubated for 3-5 minutes at 37° C. DMEM containing 10% FBS (Gibco) was added to each flask to gently wash cells. Cells were then transferred to a conical tube and centrifuged at 1000RPM for 5 minutes and resuspended in fresh medium. Cells were counted and the cell concentration was adjusted to 10,000 cells per 80 μL. Cells were plated at 80 μL per well and incubated at 37° C., 5% CO2 for 5 hours to allow cells to adhere to the plate surface. 5× dilutions of treatment compounds were made in medium. 20 µL of treatment were added to each well and mixed gently and incubated at 37° C., 5% CO2. Belotecan, MMAE, and a benchmark ADC (also referred to herein as BM ADC, CAS 1418731-10-8 and INN 10148) were also tested in parallel and served as additional controls.
(§3) ICD molecule, such as ATP and HMGB1, readouts were performed as follows. For ATP release measurement, Promega RealTimeGlo extracellular ATP assay kit (Promega, Cat #GA5010) was used according to the manufacturer's instructions. […] ATP release was measured beginning 24 hours after treatment with readings every 10 minutes on a Spectramax i3× with temperature control at 37° C. […] HMGB1 release was measured at 48- and 72-hours post-treatment.

BxPC-3 = experiment: In vitro cytotoxicity (CellTiter Glo, 5 days), BxPC-3; format: cell-based; settings: controls (FITC-ADC 8 DAR 6.36; FITC-ADC 4 DAR 3.39; free belotecan), FITC-ADC 4 value marked *: likely not accurate due to curve shape
Protocol: as §1

A431 [4] = experiment: HMGB1 release from treated tumor cells (Lumit); format: cell-based; settings: TF+ tumor cell line, e.g.
Protocol: as §2, §3

[5] = read-out: IC50 - drug concentration
[6] = read-out: IC50 - mAb concentration

Question: With `CC[C@@]1(O)C(=O)OCc2c1cc1n(c2=O)Cc2c-1nc1ccccc1c2CCNC(C)C` [belotecan] as the molecule, how does the IC50 (A431 [1]; Homo sapiens, A-431, 120 h, FITC-ADC 4 value marked *: likely not accurate due to curve shape, read-out: IC50 - mAb concentration) read?
Answer: The IC50 was 2.36 nM.

Question: What about the IC50 (A431 [1]; Homo sapiens, A-431, 120 h, read-out: IC50 - drug concentration) of the same molecule?
Answer: Its IC50 is 2.36 nM.

Question: What about the IC50 (A431 [1]; FITC-ADC 4 value marked *: likely not accurate due to curve shape, read-out: IC50 - mAb concentration) of the same molecule?
Answer: Its IC50 is 2.62 nM.

Question: And the IC50 (A431 [1]; [5])?
Answer: Its IC50 is 2.62 nM.

Question: What about the IC50 (HPAF-II; Homo sapiens, 120 h, read-out: IC50 - drug concentration) of the same molecule?
Answer: Its IC50 is 3.04 nM.

Question: What about the IC50 (HPAF-II; Homo sapiens, 120 h, read-out: IC50 - mAb concentration) of the same molecule?
Answer: The IC50 was 3.04 nM.

Question: What about the IC50 (HPAF-II; [5]) of the same molecule?
Answer: Its IC50 is 2.45 nM.

Question: And the IC50 (HPAF-II; [6])?
Answer: Its IC50 is 2.45 nM.

Question: And the accumulation of payload [2]?
Answer: The accumulation of payload was “Minimal accumulation of payload was observed”.

Question: What about the ATP release (A431 [3]) of the same molecule?
Answer: Its ATP release is “induced the release”.

Question: What about the IC50 (BxPC-3; Homo sapiens, BXPC-3, 120 h, read-out: IC50 - drug concentration) of the same molecule?
Answer: Its IC50 is 2.62 nM.

Question: What about the IC50 (BxPC-3; Homo sapiens, BXPC-3, 120 h, read-out: IC50 - mAb concentration) of the same molecule?
Answer: Its IC50 is 2.62 nM.

Question: And the IC50 (BxPC-3; [5])?
Answer: Its IC50 is 2.56 nM.

Question: And the IC50 (BxPC-3; [6])?
Answer: The IC50 was 2.56 nM.

Question: And the HMGB1 release (A431 [4])?
Answer: The HMGB1 release was “induced the release”.
